Source: patent publication US6737383B1, “Herbicidal oxadiazolidines” (priority 1999, dated 2004)

Tests used:
bedstraw = assay: Test B pre/postemergence bedstraw; type: in vivo, Galium aparine
Summary of the method: (§1)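 Response is a visual 0-to-10 score relative to untreated plants, where 0 means no effect and 10 means complete control, taken twelve to sixteen days after application. Treatments went onto soil at planting and onto foliage of 1- to 4-leaf plants, using a surfactant-containing non-phytotoxic solvent.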

blackgrass = assay: Test B pre/postemergence blackgrass; type: in vivo, Alopecurus myosuroides
Summary of the method: as §1

surinam grass = assay: Test B pre/postemergence surinam grass; type: in vivo, Brachiaria decumbens
Summary of the method: as §1

cocklebur = assay: Test B pre/postemergence cocklebur; type: in vivo, Xanthium strumarium
Summary of the method: as §1

corn = assay: Test B pre/postemergence corn; type: in vivo, Zea mays
Summary of the method: as §1

crabgrass = assay: Test B pre/postemergence crabgrass; type: in vivo, Digitaria sanguinalis
Summary of the method: as §1

giant foxtail = assay: Test B pre/postemergence giant foxtail; type: in vivo, Setaria faberii
Summary of the method: as §1

morningglory = assay: Test B pre/postemergence morningglory; type: in vivo, Ipomoea hederacea
Summary of the method: as §1

rape = assay: Test B pre/postemergence rape; type: in vivo, Brassica napus
Summary of the method: as §1

soybean = assay: Test B pre/postemergence soybean; type: in vivo, Glycine max
Summary of the method: as §1

velvetleaf = assay: Test B pre/postemergence velvetleaf; type: in vivo, Abutilon theophrasti
Summary of the method: as §1

wheat = assay: Test B pre/postemergence wheat; type: in vivo, Triticum aestivum
Summary of the method: as §1

wild oat = assay: Test B pre/postemergence wild oat; type: in vivo, Avena fatua
Summary of the method: as §1

smallflower flatsedge = assay: Test B flood test smallflower flatsedge; type: in vivo, Cyperus difformis
Summary of the method: (§2)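 Read-out is a visual response score from 0 (no effect) to 10 (complete control), assigned by comparison with untreated controls. Treatment was applied at the 2-leaf stage, and plants stayed in the greenhouse for twelve to sixteen days before scoring.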

duck salad = assay: Test B flood test duck salad; type: in vivo, Heteranthera limosa
Summary of the method: as §2

bamyardgrass = assay: Test B flood test barnyardgrass; type: in vivo, Echinochloa crus-galli
Summary of the method: as §2

[1] = Preemergence, Rate 62 g/ha, scale of 0 to 10 where 0 is no effect and 10 is complete control
[2] = Preemergence, Rate 250 g/ha, scale of 0 to 10 where 0 is no effect and 10 is complete control
[3] = Preemergence, Rate 500 g/ha, scale of 0 to 10 where 0 is no effect and 10 is complete control
[4] = Rate 62 g/ha, Postemergence, scale of 0 to 10 where 0 is no effect and 10 is complete control
[5] = Rate 125 g/ha, Postemergence, scale of 0 to 10 where 0 is no effect and 10 is complete control
[6] = Rate 125 g/ha, Preemergence, scale of 0 to 10 where 0 is no effect and 10 is complete control
[7] = Rate 250 g/ha, Postemergence, scale of 0 to 10 where 0 is no effect and 10 is complete control
[8] = Rate 500 g/ha, Postemergence, scale 0 to 10, 0 no effect, 10 complete control
[9] = Rate 62 g/ha, headed Pre-emergence (flood test species), scale 0 to 10 (0 no effect, 10 complete control)
[10] = Rate 125 g/ha, Pre-emergence, flood test species, scale 0 to 10 where 0 is no effect and 10 is complete control
[11] = Rate 250 g/ha, Pre-emergence, flood-test species, scale 0 to 10, 0 is no effect, 10 is complete control
[12] = Rate 500 g/ha, Pre-emergence, flood test species, scale 0 to 10 (0 no effect, 10 complete control)

CC(C)N(C(=O)n1oc(=O)n(CC(C)(C)C)c1=O)c1ccccc1 [Compound 276]
5: Soybean plant response rating (soybean; [5])
8: Blackgrass plant response rating (blackgrass; [8]) | Morningglory plant response rating (morningglory; [8]) | Barnyardgrass plant response rating (bamyardgrass; [11]) | Barnyardgrass plant response rating (bamyardgrass; [12])
1: Blackgrass plant response rating (blackgrass; [5]) | Giant foxtail plant response rating (giant foxtail; [5]) | Rape plant response rating (rape; [2]) | Barnyardgrass plant response rating (bamyardgrass; [9])
10: Blackgrass plant response rating (blackgrass; [2]) | Plant response rating, Blackgrass (blackgrass; [3]) | B. signalgrass plant response rating (surinam grass; [2]) | Plant response rating, B. signalgrass (surinam grass; [3]) | Giant foxtail plant response rating (giant foxtail; [2]) | Plant response rating, Giant foxtail (giant foxtail; [3]) | Giant foxtail plant response rating (giant foxtail; [6]) | Plant response rating, Rape (rape; [3])
4: Plant response rating, Blackgrass (blackgrass; [7]) | B. signalgrass plant response rating (surinam grass; [1]) | Crabgrass plant response rating (crabgrass; [6]) | Plant response rating, Giant foxtail (giant foxtail; [7]) | Wild oats plant response rating (wild oat; [2])
3: Plant response rating, Bedstraw (bedstraw; [7]) | Bedstraw plant response rating (bedstraw; [8]) | Crabgrass plant response rating (crabgrass; [1]) | Plant response rating, Velvetleaf (velvetleaf; [3]) | Plant response rating, Wheat (wheat; [3])
7: B. signalgrass plant response rating (surinam grass; [6]) | Plant response rating, Crabgrass (crabgrass; [3]) | Crabgrass plant response rating (crabgrass; [8]) | Soybean plant response rating (soybean; [8])
6: Blackgrass plant response rating (blackgrass; [6]) | Crabgrass plant response rating (crabgrass; [2]) | Plant response rating, Crabgrass (crabgrass; [7]) | Giant foxtail plant response rating (giant foxtail; [8]) | Morningglory plant response rating (morningglory; [5]) | Plant response rating, Morningglory (morningglory; [7]) | Plant response rating, Soybean (soybean; [7]) | Plant response rating, Wild oats (wild oat; [3]) | Barnyardgrass plant response rating (bamyardgrass; [10])
0: Bedstraw plant response rating (bedstraw; [1]) | Bedstraw plant response rating (bedstraw; [2]) | Plant response rating, Bedstraw (bedstraw; [3]) | Bedstraw plant response rating (bedstraw; [4]) | Bedstraw plant response rating (bedstraw; [5]) | Bedstraw plant response rating (bedstraw; [6]) | Blackgrass plant response rating (blackgrass; [4]) | B. signalgrass plant response rating (surinam grass; [4]) | B. signalgrass plant response rating (surinam grass; [5]) | Plant response rating, B. signalgrass (surinam grass; [7]) | B. signalgrass plant response rating (surinam grass; [8]) | Cocklebur plant response rating (cocklebur; [1]) | Cocklebur plant response rating (cocklebur; [2]) | Plant response rating, Cocklebur (cocklebur; [3]) | Cocklebur plant response rating (cocklebur; [4]) | Cocklebur plant response rating (cocklebur; [5]) | Cocklebur plant response rating (cocklebur; [6]) | Plant response rating, Cocklebur (cocklebur; [7]) | Cocklebur plant response rating (cocklebur; [8]) | Corn plant response rating (corn; [1]) | Corn plant response rating (corn; [2]) | Plant response rating, Corn (corn; [3]) | Corn plant response rating (corn; [4]) | Corn plant response rating (corn; [5]) | Corn plant response rating (corn; [6]) | Plant response rating, Corn (corn; [7]) | Corn plant response rating (corn; [8]) | Crabgrass plant response rating (crabgrass; [5]) | Morningglory plant response rating (morningglory; [1]) | Morningglory plant response rating (morningglory; [2]) | Plant response rating, Morningglory (morningglory; [3]) | Morningglory plant response rating (morningglory; [6]) | Rape plant response rating (rape; [1]) | Rape plant response rating (rape; [5]) | Rape plant response rating (rape; [6]) | Plant response rating, Rape (rape; [7]) | Rape plant response rating (rape; [8]) | Soybean plant response rating (soybean; [1]) | Soybean plant response rating (soybean; [2]) | Plant response rating, Soybean (soybean; [3]) | Soybean plant response rating (soybean; [6]) | Velvetleaf plant response rating (velvetleaf; [1]) | Velvetleaf plant response rating (velvetleaf; [2]) | Velvetleaf plant response rating (velvetleaf; [5]) | Velvetleaf plant response rating (velvetleaf; [6]) | Plant response rating, Velvetleaf (velvetleaf; [7]) | Velvetleaf plant response rating (velvetleaf; [8]) | Wheat plant response rating (wheat; [1]) | Wheat plant response rating (wheat; [2]) | Wheat plant response rating (wheat; [5]) | Wheat plant response rating (wheat; [6]) | Plant response rating, Wheat (wheat; [7]) | Wheat plant response rating (wheat; [8]) | Wild oats plant response rating (wild oat; [1]) | Wild oats plant response rating (wild oat; [5]) | Plant response rating, Wild oats (wild oat; [7]) | Wild oats plant response rating (wild oat; [8]) | S. Flatsedge plant response rating (smallflower flatsedge; [9]) | S. Flatsedge plant response rating (smallflower flatsedge; [10]) | S. Flatsedge plant response rating (smallflower flatsedge; [11]) | S. Flatsedge plant response rating (smallflower flatsedge; [12]) | Ducksalad plant response rating (duck salad; [9]) | Ducksalad plant response rating (duck salad; [10]) | Ducksalad plant response rating (duck salad; [11]) | Ducksalad plant response rating (duck salad; [12])
9: Giant foxtail plant response rating (giant foxtail; [1])
